Laboratory results as given in ChEMBL document CHEMBL1201862, “PubChem BioAssay data set” (2004).
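Five compound concentrations were applied to cells in 96-well plates for 48 hours; endpoints were derived by simple linear interpolation of the resulting dose-response curve. GI50: concentration for 50% inhibition of growth.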 Calls of active or inactive are those of the source. Cut-off read from the data, not from the text of the source: active = GI50 up to about 1.1 µM and inactive = higher.

Assays:
Assay in all cases: NCI anticancer screen, dose series, 48 h
[1] = test system: HL-60
[2] = test system: OVCAR-8
[3] = test system: 786-0
[4] = test system: RXF 631
[5] = test system: DMS-273
[6] = test system: M19-MEL
[7] = test system: SF-295
[8] = test system: LXFL 529
[9] = test system: OVCAR-4
[10] = test system: RPMI-8226
[11] = test system: CAKI-1
[12] = test system: DMS-114
[13] = test system: HCT-15
[14] = test system: OVCAR-5
[15] = test system: CCRF-CEM
[16] = test system: SF-268
[17] = test system: SK-MEL-28
[18] = test system: U-251
[19] = test system: HOP-92
[20] = test system: MOLT-4
[21] = test system: Malme-3M
[22] = test system: UACC-257
[23] = test system: EKVX
[24] = test system: SNB-19
[25] = test system: HCC 2998
[26] = test system: SF-539
[27] = test system: KM12
[28] = test system: SNB-78
[29] = test system: NCI-H23
[30] = test system: A498
[31] = test system: COLO 205
[32] = test system: ACHN
[33] = test system: TK-10
[34] = test system: KM-20L2
[35] = test system: NCI-H226
[36] = test system: HOP-62
[37] = test system: SN12C
[38] = test system: OVCAR-3
[39] = test system: NCI-H460
[40] = test system: DLD-1
[41] = test system: XF498
[42] = test system: A549
[43] = test system: K562
[44] = test system: HT-29
[45] = test system: SW-620
[46] = test system: HOP-18
[47] = test system: IGROV-1
[48] = test system: SK-MEL-2
[49] = test system: HCT-116
[50] = test system: M14
[51] = test system: LOX IMVI
[52] = test system: SK-OV-3
[53] = test system: UO-31
[54] = test system: NCI-H522
[55] = test system: UACC-62
[56] = test system: SR
[57] = test system: RXF 393
[58] = test system: SNB-75
[59] = test system: SK-MEL-5

With `CCOC(=O)C12CCCC1(O)N(NC(=O)OC(C)(C)C)C(C)=C2C(=O)OC` (centres undefined) the GI50 [1] was > 100 µM (inactive), the GI50 [2] was > 100 µM (inactive) and the GI50 [3] was > 100 µM (inactive). For the same compound, the GI50 [4] was > 100 µM (inactive), the GI50 [5] was > 100 µM (inactive) and the GI50 [6] was > 100 µM (inactive). The GI50 [7] was > 100 µM (inactive), the GI50 [8] was > 100 µM (inactive) and the GI50 [9] was > 100 µM (inactive). The GI50 [10] was > 100 µM (inactive), the GI50 [11] was > 100 µM (inactive) and the GI50 [12] was > 100 µM (inactive). For the same compound, the GI50 [13] was greater than 100 µM, the GI50 [14] was > 100 µM (inactive) and the GI50 [15] was > 100 µM (inactive). For the same compound, the GI50 [16] was > 100 µM (inactive), the GI50 [17] was > 10 µM (inactive) and the GI50 [18] was > 100 µM (inactive). The GI50 [19] was > 100 µM (inactive), the GI50 [20] was > 100 µM (inactive) and the GI50 [21] was > 100 µM (inactive). The GI50 [22] was > 100 µM (inactive), the GI50 [23] was > 100 µM (inactive) and the GI50 [24] was > 100 µM (inactive). For the same compound, the GI50 [25] was > 100 µM (inactive), the GI50 [26] was > 100 µM (inactive) and the GI50 [27] was > 100 µM (inactive). For the same compound, the GI50 [28] was > 100 µM (inactive), the GI50 [29] was > 100 µM (inactive) and the GI50 [30] was > 100 µM (inactive). The GI50 [31] was > 100 µM (inactive), the GI50 [32] was > 100 µM (inactive) and the GI50 [33] was > 100 µM (inactive). The GI50 [34] was > 100 µM (inactive), the GI50 [35] was > 100 µM (inactive) and the GI50 [36] was > 100 µM (inactive). The GI50 [37] was > 100 µM (inactive), the GI50 [38] was > 100 µM (inactive) and the GI50 [39] was > 100 µM (inactive). The GI50 [40] was > 100 µM (inactive), the GI50 [41] was > 100 µM (inactive) and the GI50 [42] was > 100 µM (inactive). The GI50 [43] was > 100 µM (inactive), the GI50 [44] was > 100 µM (inactive) and the GI50 [45] was > 100 µM (inactive). The GI50 [46] was > 100 µM (inactive), the GI50 [47] was > 100 µM (inactive) and the GI50 [48] was > 100 µM (inactive). The GI50 [49] was > 100 µM (inactive), the GI50 [50] was > 100 µM (inactive) and the GI50 [51] was > 100 µM (inactive). For the same compound, the GI50 [52] was > 100 µM (inactive), the GI50 [53] was > 100 µM (inactive) and the GI50 [54] was 97.3 µM (inactive). For the same compound, the GI50 [55] was > 100 µM (inactive).
`COC(=O)C1=C(O)c2cc(-c3ccccc3)c(-c3ccccc3)c(C#N)c2NC(=O)C1` was tested, and the GI50 [1] was 1.33 µM (inactive), the GI50 [2] was 4.13 µM (inactive) and the GI50 [3] was 8.38 µM (inactive). For the same compound, the GI50 [4] was 3.56 µM (inactive), the GI50 [5] was 2.13 µM (inactive) and the GI50 [6] was 14.5 µM (inactive). The GI50 [7] was 3.54 µM (inactive), the GI50 [8] was 1.3 µM (inactive) and the GI50 [9] was 27.2 µM (inactive). For the same compound, the GI50 [11] was 7.03 µM (inactive), the GI50 [12] was 29.6 µM (inactive) and the GI50 [13] was 1.55 µM. For the same compound, the GI50 [15] was 7.14 µM (inactive), the GI50 [56] was 2.96 µM (inactive) and the GI50 [17] was 34.5 µM (inactive). For the same compound, the GI50 [18] was 7.69 µM (inactive), the GI50 [20] was 2.46 µM (inactive) and the GI50 [22] was 91.8 µM (inactive). For the same compound, the GI50 [23] was > 100 µM (inactive), the GI50 [24] was 20.4 µM (inactive) and the GI50 [25] was 34.9 µM (inactive). The GI50 [26] was 7.33 µM (inactive), the GI50 [27] was 7.01 µM (inactive) and the GI50 [28] was 14 µM (inactive). The GI50 [29] was > 100 µM (inactive), the GI50 [30] was 33.9 µM (inactive) and the GI50 [31] was 6.08 µM (inactive). The GI50 [32] was 24 µM (inactive), the GI50 [34] was 13.1 µM (inactive) and the GI50 [36] was 20.4 µM (inactive). The GI50 [57] was 1.7 µM (inactive), the GI50 [37] was 47.9 µM (inactive) and the GI50 [38] was 77.8 µM (inactive). For the same compound, the GI50 [39] was 3.7 µM (inactive), the GI50 [40] was 6.3 µM (inactive) and the GI50 [41] was 49 µM (inactive). The GI50 [42] was 3.5 µM (inactive), the GI50 [43] was 3.27 µM (inactive) and the GI50 [44] was 5.81 µM (inactive). For the same compound, the GI50 [46] was < 0.01 µM (active), the GI50 [47] was 0.522 µM (active) and the GI50 [58] was 16.8 µM (inactive). The GI50 [48] was 40.8 µM (inactive), the GI50 [49] was 1.92 µM (inactive) and the GI50 [50] was 4.99 µM (inactive). The GI50 [53] was 1.4 µM (inactive) and the GI50 [55] was 3.97 µM (inactive).
For `COC(=O)C1C(C(=O)OC)C2(OC)c3ccccc3-c3ccccc3C12` (centres undefined), the GI50 [1] was 1.97 µM (inactive), the GI50 [2] was 49.7 µM (inactive) and the GI50 [3] was 75.2 µM (inactive). The GI50 [4] was 54.8 µM (inactive), the GI50 [5] was 16.7 µM (inactive) and the GI50 [6] was 33 µM (inactive). The GI50 [7] was 38.2 µM (inactive), the GI50 [8] was 44.1 µM (inactive) and the GI50 [9] was 48.2 µM (inactive). The GI50 [10] was 9.89 µM (inactive), the GI50 [11] was 40.1 µM (inactive) and the GI50 [12] was 20.6 µM (inactive). For the same compound, the GI50 [13] was 28.4 µM, the GI50 [14] was > 100 µM (inactive) and the GI50 [15] was 24.7 µM (inactive). The GI50 [56] was 15.5 µM (inactive), the GI50 [16] was 45.1 µM (inactive) and the GI50 [17] was 90.2 µM (inactive). For the same compound, the GI50 [18] was 42.9 µM (inactive), the GI50 [19] was 35 µM (inactive) and the GI50 [20] was 12.1 µM (inactive). The GI50 [21] was 47.9 µM (inactive), the GI50 [22] was 24.2 µM (inactive) and the GI50 [23] was 28.7 µM (inactive). For the same compound, the GI50 [24] was 60 µM (inactive), the GI50 [25] was 64.3 µM (inactive) and the GI50 [26] was 66.5 µM (inactive). The GI50 [27] was 35.6 µM (inactive), the GI50 [29] was 27.6 µM (inactive) and the GI50 [30] was 44 µM (inactive). For the same compound, the GI50 [31] was 16.1 µM (inactive), the GI50 [32] was 37.9 µM (inactive) and the GI50 [33] was 31.8 µM (inactive). The GI50 [34] was 26.2 µM (inactive), the GI50 [35] was 49.5 µM (inactive) and the GI50 [36] was 71.6 µM (inactive). The GI50 [57] was 40.9 µM (inactive), the GI50 [37] was 32 µM (inactive) and the GI50 [38] was 31 µM (inactive). For the same compound, the GI50 [39] was 34.4 µM (inactive), the GI50 [40] was 33.3 µM (inactive) and the GI50 [42] was 36.4 µM (inactive). The GI50 [43] was 19.8 µM (inactive), the GI50 [44] was 32.2 µM (inactive) and the GI50 [45] was 48.1 µM (inactive). For the same compound, the GI50 [46] was 55.1 µM (inactive), the GI50 [47] was 35 µM (inactive) and the GI50 [58] was 38.4 µM (inactive). The GI50 [48] was 8.51 µM (inactive), the GI50 [49] was 35.4 µM (inactive) and the GI50 [50] was 34.2 µM (inactive). For the same compound, the GI50 [59] was 18.7 µM (inactive), the GI50 [51] was 25.6 µM (inactive) and the GI50 [52] was 80 µM (inactive). The GI50 [53] was 31 µM (inactive), the GI50 [54] was 20.3 µM (inactive) and the GI50 [55] was 26.1 µM (inactive).
